Measurements reported in ChEMBL document CHEMBL4316588, “Design, Synthesis, and Biological Evaluation of Novel DNA Gyrase-Inhibiting Spiropyrimidinetriones as Potent Antibiotics for Treatment of Infections Caused by Multidrug-Resistant Gram-Positive Bacteria” (J Med Chem, 2019).
Converted amounts (≈) assume the structure as drawn. The source made the active and inactive calls. The calls are words filed in the database; no cut-off is given here.

Legend:
[1] = tested on: Staphylococcus aureus; assay: Antibacterial activity against methicillin-sensitive Staphylococcus aureus after 18 to 20 hrs by CLSI-protocol based broth microdilution method; type: functional
[2] = molecular target: DNA topoisomerase 2-alpha (Homo sapiens, UniProt P11388); assay: Inhibition of human topoisomerase-2alpha using catenated DNA as substrate after 30 mins by ethidium bromide-based gel electrophoresis
Sequence of DNA topoisomerase 2-alpha (P11388 whole entry): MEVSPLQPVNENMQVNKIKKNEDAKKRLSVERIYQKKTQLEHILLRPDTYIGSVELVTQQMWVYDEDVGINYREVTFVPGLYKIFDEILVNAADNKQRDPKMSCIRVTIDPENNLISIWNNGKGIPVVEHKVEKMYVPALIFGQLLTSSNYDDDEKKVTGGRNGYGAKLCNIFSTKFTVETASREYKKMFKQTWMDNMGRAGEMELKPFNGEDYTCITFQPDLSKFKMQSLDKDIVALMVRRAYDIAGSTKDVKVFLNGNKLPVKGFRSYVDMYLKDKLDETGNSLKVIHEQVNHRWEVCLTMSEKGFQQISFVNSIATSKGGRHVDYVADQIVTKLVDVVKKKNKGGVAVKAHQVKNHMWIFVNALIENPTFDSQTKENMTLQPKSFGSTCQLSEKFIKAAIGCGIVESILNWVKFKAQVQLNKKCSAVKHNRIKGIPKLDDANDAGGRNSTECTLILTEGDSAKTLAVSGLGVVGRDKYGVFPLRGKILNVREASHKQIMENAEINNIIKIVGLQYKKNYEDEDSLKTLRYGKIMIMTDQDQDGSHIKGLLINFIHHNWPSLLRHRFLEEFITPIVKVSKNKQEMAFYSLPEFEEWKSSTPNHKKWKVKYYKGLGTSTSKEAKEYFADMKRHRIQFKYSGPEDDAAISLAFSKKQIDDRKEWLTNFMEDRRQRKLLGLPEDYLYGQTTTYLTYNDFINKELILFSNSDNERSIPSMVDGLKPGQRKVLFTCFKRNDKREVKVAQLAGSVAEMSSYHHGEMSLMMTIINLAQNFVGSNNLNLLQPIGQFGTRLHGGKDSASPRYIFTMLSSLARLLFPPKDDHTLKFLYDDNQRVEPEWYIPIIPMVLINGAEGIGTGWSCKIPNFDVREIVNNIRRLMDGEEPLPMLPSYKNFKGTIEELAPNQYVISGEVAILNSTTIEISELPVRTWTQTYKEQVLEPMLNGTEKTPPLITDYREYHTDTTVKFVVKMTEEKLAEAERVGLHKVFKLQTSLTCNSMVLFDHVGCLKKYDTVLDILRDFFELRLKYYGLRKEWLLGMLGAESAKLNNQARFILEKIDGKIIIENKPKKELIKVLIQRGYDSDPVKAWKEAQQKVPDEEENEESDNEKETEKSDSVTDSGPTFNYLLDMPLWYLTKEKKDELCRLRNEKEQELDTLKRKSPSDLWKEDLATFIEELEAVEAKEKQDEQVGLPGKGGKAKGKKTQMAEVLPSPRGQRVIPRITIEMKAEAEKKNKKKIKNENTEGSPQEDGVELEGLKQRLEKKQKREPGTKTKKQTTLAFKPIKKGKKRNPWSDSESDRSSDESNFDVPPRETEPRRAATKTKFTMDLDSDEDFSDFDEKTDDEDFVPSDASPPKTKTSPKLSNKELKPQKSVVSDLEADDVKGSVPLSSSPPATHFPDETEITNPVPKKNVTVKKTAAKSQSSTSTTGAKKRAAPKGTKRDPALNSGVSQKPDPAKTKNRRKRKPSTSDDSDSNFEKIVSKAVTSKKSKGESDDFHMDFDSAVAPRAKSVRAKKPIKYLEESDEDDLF

[3] = tested on: Streptococcus pyogenes; assay: Antibacterial activity against Streptococcus pyogenes after 18 to 20 hrs by CLSI-protocol based broth microdilution method; type: functional
[4] = tested on: Staphylococcus aureus; assay: Antibacterial activity against methicillin-resistant Staphylococcus aureus after 18 to 20 hrs by CLSI-protocol based broth microdilution method; type: functional
[5] = molecular target: DNA gyrase (Staphylococcus aureus, UniProt P0A0K8+P20831)
Sequence of DNA gyrase (P0A0K8 whole entry): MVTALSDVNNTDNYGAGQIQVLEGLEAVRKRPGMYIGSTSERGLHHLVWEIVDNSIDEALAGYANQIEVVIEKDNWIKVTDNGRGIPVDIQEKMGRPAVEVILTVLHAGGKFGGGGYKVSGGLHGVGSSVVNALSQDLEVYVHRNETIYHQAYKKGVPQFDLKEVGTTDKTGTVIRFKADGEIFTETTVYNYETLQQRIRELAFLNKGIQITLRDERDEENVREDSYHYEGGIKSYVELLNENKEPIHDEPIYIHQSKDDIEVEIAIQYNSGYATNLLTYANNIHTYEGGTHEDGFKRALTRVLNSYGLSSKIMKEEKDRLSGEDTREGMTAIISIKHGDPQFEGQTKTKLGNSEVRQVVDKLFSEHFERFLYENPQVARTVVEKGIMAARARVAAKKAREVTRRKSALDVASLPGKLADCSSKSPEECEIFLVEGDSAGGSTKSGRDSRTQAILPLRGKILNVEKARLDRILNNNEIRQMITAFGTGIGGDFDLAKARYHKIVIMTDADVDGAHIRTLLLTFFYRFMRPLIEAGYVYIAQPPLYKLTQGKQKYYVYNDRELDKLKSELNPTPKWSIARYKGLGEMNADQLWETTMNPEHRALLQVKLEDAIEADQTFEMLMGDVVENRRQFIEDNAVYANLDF
Sequence of DNA gyrase (P20831 whole entry): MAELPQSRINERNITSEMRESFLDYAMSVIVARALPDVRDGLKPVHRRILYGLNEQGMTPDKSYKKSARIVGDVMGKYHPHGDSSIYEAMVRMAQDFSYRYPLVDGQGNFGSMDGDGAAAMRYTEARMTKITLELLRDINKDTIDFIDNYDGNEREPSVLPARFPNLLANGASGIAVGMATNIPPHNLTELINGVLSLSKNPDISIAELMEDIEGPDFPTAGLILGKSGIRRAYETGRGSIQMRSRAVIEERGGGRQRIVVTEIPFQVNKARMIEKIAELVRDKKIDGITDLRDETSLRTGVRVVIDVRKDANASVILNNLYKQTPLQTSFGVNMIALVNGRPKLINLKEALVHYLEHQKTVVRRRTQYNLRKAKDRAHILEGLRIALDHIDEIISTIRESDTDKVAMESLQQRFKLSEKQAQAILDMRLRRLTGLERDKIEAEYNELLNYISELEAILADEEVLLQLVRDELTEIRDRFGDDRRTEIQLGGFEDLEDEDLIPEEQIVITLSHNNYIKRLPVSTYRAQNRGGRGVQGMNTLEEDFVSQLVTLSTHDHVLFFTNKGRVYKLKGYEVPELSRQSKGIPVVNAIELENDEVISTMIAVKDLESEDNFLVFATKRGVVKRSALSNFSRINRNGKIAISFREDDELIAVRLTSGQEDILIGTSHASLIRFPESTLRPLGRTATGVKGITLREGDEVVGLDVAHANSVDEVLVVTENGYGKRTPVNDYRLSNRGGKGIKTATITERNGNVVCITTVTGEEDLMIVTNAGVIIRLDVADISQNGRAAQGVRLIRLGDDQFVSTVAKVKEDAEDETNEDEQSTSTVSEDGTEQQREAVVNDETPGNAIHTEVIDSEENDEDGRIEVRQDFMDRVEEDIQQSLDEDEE
Description: Inhibition of Staphylococcus aureus DNA gyrase supercoiling activity using relaxed pHOT-1 DNA as substrate after 60 mins by ethidium bromide-based gel electrophoresis

[6] = tested on: Staphylococcus epidermidis; assay: Antibacterial activity against methicillin-resistant Staphylococcus epidermidis after 18 to 20 hrs by CLSI-protocol based broth microdilution method; type: functional
[7] = tested on: Staphylococcus epidermidis; assay: Antibacterial activity against methicillin-sensitive Staphylococcus epidermidis after 18 to 20 hrs by CLSI-protocol based broth microdilution method; type: functional
[8] = tested on: Streptococcus pneumoniae; assay: Antibacterial activity against penicillin-resistant Streptococcus pneumoniae after 18 to 20 hrs by CLSI-protocol based broth microdilution method; type: functional
[9] = molecular target: Voltage-gated inwardly rectifying potassium channel KCNH2 (Homo sapiens, UniProt Q12809); assay: Inhibition of human ERG expressed in CHO cells in at -80 mV holding potential by automated Qpatch clamp assay; type: cell-based
Sequence of Voltage-gated inwardly rectifying potassium channel KCNH2 (Q12809 whole entry): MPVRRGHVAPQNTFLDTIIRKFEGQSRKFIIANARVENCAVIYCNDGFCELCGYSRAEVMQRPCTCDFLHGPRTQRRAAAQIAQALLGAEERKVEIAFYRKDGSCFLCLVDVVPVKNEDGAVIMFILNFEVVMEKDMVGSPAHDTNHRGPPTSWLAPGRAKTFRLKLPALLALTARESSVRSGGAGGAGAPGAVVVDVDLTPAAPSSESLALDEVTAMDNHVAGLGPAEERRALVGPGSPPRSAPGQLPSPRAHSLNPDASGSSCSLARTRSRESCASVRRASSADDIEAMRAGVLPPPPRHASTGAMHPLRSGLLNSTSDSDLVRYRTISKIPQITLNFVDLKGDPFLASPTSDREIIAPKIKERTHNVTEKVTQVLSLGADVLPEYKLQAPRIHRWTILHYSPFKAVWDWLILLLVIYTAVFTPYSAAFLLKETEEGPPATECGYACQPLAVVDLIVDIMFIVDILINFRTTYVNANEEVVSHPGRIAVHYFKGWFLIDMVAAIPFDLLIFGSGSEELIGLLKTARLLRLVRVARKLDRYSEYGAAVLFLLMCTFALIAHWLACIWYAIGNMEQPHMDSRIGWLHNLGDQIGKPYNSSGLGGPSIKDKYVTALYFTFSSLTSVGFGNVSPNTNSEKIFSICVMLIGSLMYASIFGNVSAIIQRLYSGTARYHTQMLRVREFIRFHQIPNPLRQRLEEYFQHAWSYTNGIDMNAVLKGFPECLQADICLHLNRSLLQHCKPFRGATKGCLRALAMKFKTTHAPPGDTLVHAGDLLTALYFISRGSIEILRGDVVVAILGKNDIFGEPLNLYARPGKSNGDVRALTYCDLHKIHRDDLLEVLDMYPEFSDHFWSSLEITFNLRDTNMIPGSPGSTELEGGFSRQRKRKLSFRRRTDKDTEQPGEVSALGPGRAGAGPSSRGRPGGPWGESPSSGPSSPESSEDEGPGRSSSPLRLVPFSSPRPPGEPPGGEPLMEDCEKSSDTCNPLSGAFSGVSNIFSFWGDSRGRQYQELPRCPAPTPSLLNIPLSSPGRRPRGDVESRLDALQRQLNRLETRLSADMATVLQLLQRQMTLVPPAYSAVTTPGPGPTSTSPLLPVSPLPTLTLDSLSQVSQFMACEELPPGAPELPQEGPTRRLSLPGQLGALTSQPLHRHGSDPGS

[10] = tested on: Neisseria gonorrhoeae; assay: Antibacterial activity against Neisseria gonorrhoeae after 18 to 20 hrs by CLSI-protocol based agar microdilution method; type: functional
[11] = Tmax in CD1 mouse at 10 mg/kg, po by LC-MS/MS analysis; type: ADME, organism-based; details: in vivo
[12] = Staphylococcus aureus, read-out: MIC
[13] = Streptococcus pyogenes, read-out: MIC

Compound | MIC [1, 12] [µg/mL] | IC50 [2] [µM] | MIC [3, 13] [µg/mL] | MIC [4] | IC50 [5] [µM] | MIC [6] | MIC [7] | MIC [8] | IC50 [9] [µM] | MIC50 [10] [µg/mL] | MIC90 [10] [µg/mL] | Tmax [11] [min] | MIC [1] | MIC [3]
CC[C@H]1CN(c2noc3c(F)c4c(cc23)CC2(C(=O)NC(=O)NC2=O)[C@H]2[C@H](C)O[C@H](C)CN42)C(=O)S1 | < 0.03 | 128 | < 0.03 | < 0.03 µg/mL | 9.1 | < 0.03 µg/mL |  |  |  |  |  |  |  | 
COc1cccc2c1C(=O)c1c(O)c3c(c(O)c1C2=O)C[C@@](O)(C(=O)CO)C[C@@H]3O[C@H]1C[C@H](N)[C@H](O)[C@H](C)O1 [DOXORUBICIN] |  | 0.6 |  |  |  |  |  |  |  |  |  |  |  | 
C[C@@H]1CN2c3c(cc4c(N5C(=O)SC[C@@H]5C)noc4c3F)CC3(C(=O)NC(=O)NC3=O)[C@H]2[C@H](C)O1 | 0.25 to 0.5 (≈ 0.497 to 0.993 µM) | > 200 | 0.125 to 0.25 (≈ 0.248 to 0.497 µM) | 0.03 to 0.125 µg/mL (≈ 0.0596 to 0.248 µM) | 15.6 | 0.06 to 0.25 µg/mL (≈ 0.119 to 0.497 µM) | 0.03 to 0.125 µg/mL (≈ 0.0596 to 0.248 µM) | 0.125 to 1 µg/mL (≈ 0.248 to 1.99 µM) |  |  |  |  |  | 
C[C@@H]1CN2c3c(cc4c(N5CC6(CC6)OC5=O)noc4c3C#N)CC3(C(=O)NC(=O)NC3=O)[C@H]2[C@H](C)O1 | 1 to 4 (≈ 1.97 to 7.9 µM) |  | 4 (≈ 7.9 µM) | 0.03 to 8 µg/mL (≈ 0.0592 to 15.8 µM) |  | 0.5 to 2 µg/mL (≈ 0.987 to 3.95 µM) | 0.25 to 2 µg/mL (≈ 0.494 to 3.95 µM) | 1 to 2 µg/mL (≈ 1.97 to 3.95 µM) |  |  |  |  |  | 
COC[C@H]1CN(c2noc3c(F)c4c(cc23)CC2(C(=O)NC(=O)NC2=O)[C@H]2[C@H](C)O[C@H](C)CN42)C(=O)S1 | 0.03 to 0.25 (≈ 0.0562 to 0.469 µM) | > 200 | 0.25 to 0.5 (≈ 0.469 to 0.937 µM) | 0.03 to 0.5 µg/mL (≈ 0.0562 to 0.937 µM) | 9.4 | < 0.03 µg/mL | 0.03 to 0.125 µg/mL (≈ 0.0562 to 0.234 µM) |  | > 40 | 0.25 (≈ 0.469 µM) | 0.5 (≈ 0.937 µM) | 34.8 |  | 
C[C@@H]1CN2c3c(cc4c(N5C(=O)OC[C@@H]5C)noc4c3F)CC3(C(=O)N(C)C(=O)N(C)C3=O)[C@H]2[C@H](C)O1 |  |  |  | inactive |  | inactive | inactive | inactive |  |  |  |  | inactive | inactive
